From patent publication US20040197333A1, “Use of TGF-beta antagonists to inhibit tumor cell formation or progression” (Cornell Research Foundation, Inc., priority 2000, published 2004)

Test system: A-549 cells
Test: Scanning electron microscopy of cell morphology (invasive phenotype)
Format: cell-based, human
Settings: 2ngm^−1 recombinant TGF-β1 protein
Text: Scanning electron microscopy. […] Cells were fixed with PBS, pH 7.4, containing 2.0% glutaraldehyde, and processed as previously described (Ref 17). Samples were examined using a JEOL 25SIII electron microscope.
A-549 cells express functional receptors for TGF-β, and their growth and functions are regulated by TGF-β (refs. 7 and 8). The experiments with A-549 cells were established ex vivo to avoid any confounding effects of CsA-associated inhibition of in vivo immune surveillance mechanism(s).

## recombinant TGF-β1 protein: recombinant TGF-β1 protein added to A-549 cells
  morphological alterations in A-549 cells: induced morphological alterations in A-549 cells that were similar to those elicited by CsA
